In patent US9445987B2, “Ceramide production enhancer and moisturizer” (Kao Corporation, priority 2009, dated 2016):

Tested on: Normal human epidermal keratinocytes (NHEK(F))
Test: Verification of ceramide production enhancing effect (Test Example 2 and Reference Example)
Assay type: cell-based
Description: Normal human epidermal keratinocytes (trade name: NHEK(F), manufactured by Kurabo Industries, Ltd.) were cultured under the conditions of 37° C. and 5% CO2, in a culture fluid (trade name: EpiLife-KG2, manufactured by Kurabo Industries, Ltd.) using a culture plate.
Thereafter, the culture fluid was exchanged with EpiLife-KG2 from which growth factors such as epidermal growth factor had been eliminated, and a solution in which concentration of toosendanin was adjusted to 1 mM (574 ppm), or a control solution (50% ethanol) was added to the culture fluid in an amount of 0.01%.
The cells were cultured for 3 days, and then the respective cells were collected from each well.
An organic phase obtained by extracting lipids from the collected cells by the Blight and Dyer method, was transferred into a glass tube, and was dried to solid in nitrogen stream. Subsequently, the dried product was redissolved in chloroform and methanol, and this was used as a lipid sample.
Further, 0.1N NaOH and a 1% aqueous SDS solution were added to the cells from which lipids had been extracted, and the mixture was heated at 60° C. for 2 hours to thereby solubilize proteins. The mixture was cooled to room temperature, and then 2N HCl was added for neutralization. The amount of proteins was quantified by the BCA method. […]

Compound: CC(=O)O[C@@H]1C[C@H](O)[C@@]23CO[C@@H](O)[C@]1(C)[C@@H]2C[C@@H](O)[C@]1(C)[C@@H]3C(=O)[C@H](OC(C)=O)[C@@]2(C)[C@H](c3ccoc3)C[C@H]3O[C@]321 [Toosendanin, toosendanin]
- Amount of ceramide production (Amount of ceramide production of control solution-added group = 1) (concentration for verification 57.4 ppb, cells cultured 3 days, TLC detection, control 50% ethanol): 1.22
- amount of ceramide production as compared to the control system (in words) (toosendanin-added system, 57.4 ppb, Table 2): an increase in the amount of ceramide production was recognized
